Here are results for six compounds from patent publication US7977304B2, “FK 228 derivates as HDAC inhibitors” (University of Southampton Highfield, priority 2005, dated 2011).

The test system of test [1] is HDAC (Hela Nuclear Extract). Kind of test: Activity Assay 5: in vitro HDAC fluorescent activity assay (Biomol kit). Conditions: compounds reduced with DTT prior to analysis, 37° C., 1 hour, read-out: Inhibition of HDAC activity IC50. The test is classed as biochemical. As to the method: We analysed the ability of compounds to inhibit in vitro HDAC activity. In vitro HDAC assays were performed using a HDAC fluorescent activity assay kit (Biomol, UK) according to the manufacturer's instructions. Compounds were reduced prior to analysis; 1 mM compound was reduced with 30 mM DTT in DMSO overnight at room temperature, protected from light. Reactions were then set up in a 96-well plate. […] Serial dilutions were set up for each compound. Reactions containing Hela extract only and assay buffer only were also set up. 25 μl diluted Fluor de Lys™ substrate (100-fold in assay buffer) was added to each reaction, which were then incubated at 37° C. for 1 hour. The reaction was stopped by addition of 50 μl Fluor de Lys™ Developer (20-fold dilution in assay buffer, plus TSA diluted 100-fold). […] Inhibition of in vitro HDAC activity was determined for mean values of duplicate samples as percentages relative to HeLa extract only reactions. IC50 values were calculated using GraphPad Prism software.

In the next test the test system is MCF7 breast cancer cells. Briefly: Activity Assay 6: CyQuant cell growth inhibition, MCF7. The test is classed as cell-based. Conditions: Homo sapiens, 144 h, MCF7, 6 days. As to the method: (§1) We analysed the ability of compounds to inhibit the in vitro growth of human cancer cells. Cell proliferation assays were performed using the CyQuant™ assay system (Molecular Probes, Inc. USA) according to the manufacturer's instructions. MCF7 breast, A2780 ovarian and PC3 and LNCAP prostate cancer cells were plated in 96 well plates, at a density of 1000 cells for MCF7 cells or 5000 cells for M780/PC3/LNCAP cells, in 100 μl of cell culture medium per well. Compounds were added a minimum of 5 hours later, in serial dilutions in cell culture medium, in 100 μl volumes at 2× final concentration. Cell culture medium was removed after 4 (A2780, PC3 or LNCAP cells) or 6 days (MCF7 cells) by inversion of the plate onto blotting paper and cells were gently washed once with 200 μl PBS. Plates were frozen immediately for a minimum of one hour at −80° C. and then thawed. 200 μl of 1× CyQuant cell lysis buffer supplemented with dye, made according to the manufacturer's instruction, was added immediately to each well and incubated at room temperature for 3-5 minutes. Fluorescence was then measured for each well using a Cytofluor II Fluoresence Multiwell Plate Reader and CytoFluor II software with filters at 480 nm for excitation and 520 nm for emission maxima. Cell proliferation was determined for mean values of duplicate samples as percentages relative to untreated cell samples (=100%). Growth inhibition curves were used to derive IC50 values.

Test [2] deals with PC3 prostate cancer cells. Briefly: Activity Assay 6: CyQuant cell growth inhibition, PC3. It is filed as cell-based. Conditions: Homo sapiens, 96 h, PC3, 4 days. As to the method:
as §1

The subject of test [3] is LNCAP prostate cancer cells. Briefly: Activity Assay 6: CyQuant cell growth inhibition, LNCAP. It is filed as cell-based. Conditions: Homo sapiens, 96 h, 4 days. As for the experimental part: as §1
Test [4] concerns A2780 ovarian cancer cells. Briefly: Activity Assay 6: CyQuant cell growth inhibition, A2780. It is filed as cell-based. Conditions: Homo sapiens, 96 h, A2780, 4 days. As to the method: as §1
For test [5], the system named is TNFα production from peripheral blood mononuclear cells (PBMCs). Briefly: Activity Assay 7: LPS-induced TNFα secretion from PBMCs (QUANTIKINE immunoassay). Conditions: Homo sapiens, PBMC. The test is classed as cell-based. As to the method: We analysed the ability of compounds to inhibit the production of TNFα from peripheral blood mononuclear cells (PBMCs). TNF-α immunoassays were carried out using the QUANTIKINE® Human TNF-α assay kit (R&D systems, Abingdon UK) according to the manufacturer's instructions. […] Compounds were added 1 hour later in volumes of 100 μl at 6× final concentration. Five hours later lipopolysaccharide (LSP, Sigma, Poole, UK) was added in a volume of 10 μl at 60× final concentration. Plates were mixed and left overnight at 37° C. 5% C02. Plates were centrifuged and cell supernatant was transferred to a new plate. The QUANTIKINE® assay reagents and standards were prepared according to the manufacturer instructions. The QUANTIKINE® assay plate was prepared by adding 50 μl of assay diluent RD1F into each well. This was followed by 200 μl of standard or 100 μl of calibrator diluent plus 100 μl cell supernatant; this was incubated for 2 hours at room temperature (RT). The plate was washed using wash buffer 4 times. After the final wash the plate was tapped on clean paper towel to remove all residual buffer. 200 μl of TNF-α conjugate was added to each well and incubated for 1 hour at RT. The plate was then washed as before. The required amount of substrate solution was prepared by adding equal volumes of colour reagents A and B, protecting from light, 200 μl of this mix was added to each well and incubated for 20 mins at RT, protected from light. 50 μl of stop solution was added to each well in the same order as the substrate solution and the plate was read on a Biorad 680 96 well plate reader (Bio-Rad, Hemel Hempstead, UK) at 450 nm with λ correction at 570 nm. TNF-α levels were determined for mean values of duplicate samples using absorbance in nm, calibration zero values were subtracted from all results to correct for the addition of calibrator diluent in the assay.

The next test concerns MCF7 cells. Briefly: Activity Assay 3: cell cycle distribution and survival by propidium iodide flow cytometry. It is filed as cell-based. Conditions: MCF7, ~10×IC50 for growth inhibition, 24, 48 or 72 hours. As to the method: Method; MCF7 cells were incubated with indicated concentrations of compounds, or left untreated as a control, for various times, as detailed in the figure legends. Cells were collected and the proportion of cells in different phases of the cell cycle determined using propidium iodide staining and flow cytometry as previously described (Purohit et al., Int J Ca 85, 584-9 2000). The proportion of cells with <G0/G1 content (pre G0) relative to total cells was calculated first. The proportion of cells in different cell cycle phases (G0/G1, S, G2/M) was calculated as a proportion of all cells in the cell cycle (i.e., total cells minus cells with <G0/G1 content).
MCF7 cells were incubated with the indicated concentrations of compounds (each equivalent to ˜10×IC50 values for growth inhibition), or DMSO as a solvent control, for 24, 48 or 72 hours. The proportion of cells in different phases of the cell cycle was determined by flow cytometry. Data shown are mean values ±SD, derived from two separate experiments, relative to untreated cells which are normalised to 1.

Regarding `CC(C)[C@H]1NC(=O)[C@H]2CSSCC/C=C/[C@H](CC(=O)N[C@H](Cc3ccccc3)C(=O)N2)OC(=O)CNC1=O` [Compound 9B, (E)-(1S,7R,10S,21R)-21-benzyl-7-isopropyl-2-oxa-12,13-dithia-5,8,20,23-tetraaza-bicyclo[8.7.6]tricos-16-ene-3,6,9,19,22-pentaone], the IC50 in test [1] is 25 nM; in the test with MCF7 breast cancer cells, 2.9 nM.

Take `CC(C)[C@H]1NC(=O)C[C@H]2/C=C/CCSSC[C@@H](NC1=O)C(=O)N[C@H](C(C)C)C(=O)NCC(=O)O2` [Compound 9C, (E)-(1S,7R,10S,21R)-7,21-diisopropyl-2-oxa-12,13-dithia-5,8,20,23-tetraaza-bicyclo[8.7.6]tricos-16-ene-3,6,9,19,22-pentaone]: the IC50 in test [1] was 9.9 nM; in the test with MCF7 breast cancer cells, 5.2 nM.

Regarding `CC(C)[C@H]1NC(=O)[C@H]2CSSCC/C=C/[C@H](CC(=O)N[C@H](C)C(=O)N2)OC(=O)[C@@H](C)NC1=O` [Compound 9E, (E)-(1S,4R,7R,10S,21R)-7-isopropyl-4,21-dimethyl-2-oxa-12,13-dithia-5,8,20,23-tetraaza-bicyclo[8.7.6]tricos-16-ene-3,6,9,19,22-pentaone], the 50% inhibitory concentration (IC50) was determined as 87 nM in test [1]; 117 nM with MCF7 breast cancer cells; 296 nM in test [2]; 1190 nM in test [3]; 651 nM in test [4]. For the same compound, in test [5] (Concentration 200 nM), testing at 0.2 µM gave an inhibition of 84%.

`CC(C)[C@H]1NC(=O)[C@H]2CSSCC/C=C/[C@H](CC(=O)N[C@H](CCC(=O)OC(C)(C)C)C(=O)N2)OC(=O)CNC1=O` [Compound 9F, 3-((E)-(1S,7R,10S,21R)-7-Isopropyl-3,6,9,19,22-pentaoxo-2-oxa-12,13-dithia-5,8,20,23-tetraaza-bicyclo[8.7.6]tricos-16-en-21-yl)-propionic acid tert-butyl ester]: the 50% inhibitory concentration (IC50) was 8 nM in test [1]; 1.6 nM in the test on MCF7 breast cancer cells; 0.8 nM in test [2]; 6.7 nM in test [3]; 3 nM in test [4]. In addition, the inhibition at 0.0075 µM in test [5] (Concentration 7.5 nM) is 68%.

Turning to `CC(C)[C@H]1NC(=O)[C@H]2CSSCC/C=C/[C@H](CC(=O)N[C@H](CCC(=O)O)C(=O)N2)OC(=O)CNC1=O` [Compound 10F, 3-((E)-(1S,7R,10S,21R)-7-Isopropyl-3,6,9,19,22-pentaoxo-2-oxa-12,13-dithia-5,8,20,23-tetraaza-bicyclo[8.7.6]tricos-16-en-21-yl)-propionic acid], the IC50 in test [1] came out at 1.7 nM; in the test with MCF7 breast cancer cells, 457 nM.

For the compound `O=C(CCCCCCC(=O)Nc1ccccc1)NO` [SAHA, Suberoylanilide hydroxamic acid, reference compound], the “cell cycle distribution and survival” value in the test on MCF7 cells is “induce a predominant G2/M phase arrest and cell death”.

In general, IC50 refers to the concentration at which inhibition is half-maximal. As a reminder, the inhibition is the share of the control response that was lost under treatment. High values mean strong suppression, low ones little suppression.
